Source: the NIST ThermoML archive (doi:10.1021/je060271a)
“And” between values parts separate entries of the source, which are not always exact repeats. Equal values may be shown once. ± gives the expanded uncertainty stated by the source.

Conditions: Liquid, Vibrating tube method

CCCCCCC(=O)OCC(COC(=O)CCCCCC)(COC(=O)CCCCCC)COC(=O)CCCCCC [pentaerythritol tetraheptanoate]
Conditions | mass density
343.15 K, 32525 kPa | 962.8 ± 1.2 kg/m3
343.15 K, 32544 kPa | 962.9 ± 1.2 kg/m3
343.15 K, 32576 kPa | 962.8 ± 1.2 kg/m3
343.15 K, 32608 kPa | 962.8 ± 1.2 kg/m3
343.15 K, 32640 kPa | 962.9 ± 1.2 kg/m3
343.15 K, 32679 kPa | 962.8 ± 1.6 kg/m3
343.15 K, 32711 kPa | 963 ± 1.2 kg/m3
343.15 K, 32736 kPa | 963 ± 1.2 kg/m3
343.15 K, 32750 kPa | 963.1 ± 1.2 kg/m3
343.15 K, 32774 kPa | 963.1 ± 1.2 kg/m3
343.15 K, 32782 kPa | 963 ± 1.2 kg/m3
343.15 K, 32814 kPa | 963.1 ± 1.2 kg/m3
343.15 K, 32815 kPa | 963 ± 1.2 kg/m3
343.15 K, 32853 kPa | 963.1 ± 1.2 kg/m3
343.15 K, 32854 kPa | 962.9 ± 1.2 kg/m3
343.15 K, 32887 kPa | 962.9 ± 1.2 kg/m3
343.15 K, 32900 kPa | 963.1 ± 1.2 kg/m3
343.15 K, 32920 kPa | 963.1 ± 1.2 kg/m3
343.15 K, 32940 kPa | 963 ± 1.2 kg/m3
343.15 K, 32953 kPa | 963.1 ± 1.2 kg/m3
343.15 K, 32980 kPa | 963 ± 1.2 kg/m3
343.15 K, 32993 kPa | 963.1 ± 1.2 kg/m3
343.15 K, 33027 kPa | 963.1 ± 1.2 kg/m3
343.15 K, 33028 kPa | 963.2 ± 1.2 kg/m3
343.15 K, 33060 kPa | 963.1 ± 1.2 kg/m3
343.15 K, 33068 kPa | 963.1 ± 1.2 kg/m3
343.15 K, 33100 kPa | 963.1 ± 1.2 kg/m3
343.15 K, 33109 kPa | 963.1 ± 1.2 kg/m3
343.15 K, 33134 kPa | 963.3 ± 1.2 kg/m3
343.15 K, 33174 kPa | 963.3 ± 1.2 kg/m3
343.15 K, 33208 kPa | 963.4 ± 1.2 kg/m3
343.15 K, 33242 kPa | 963.2 ± 1.2 kg/m3
343.15 K, 33276 kPa | 963.3 ± 1.2 kg/m3
343.15 K, 33317 kPa | 963.3 ± 1.2 kg/m3
343.15 K, 33351 kPa | 963.3 ± 1.2 kg/m3
343.15 K, 33385 kPa | 963.4 ± 1.2 kg/m3
343.15 K, 33425 kPa | 963.3 ± 1.2 kg/m3
343.15 K, 33459 kPa | 963.4 ± 1.2 kg/m3
343.15 K, 33500 kPa | 963.3 ± 1.2 kg/m3
343.15 K, 33535 kPa | 963.4 ± 1.2 kg/m3
343.15 K, 33569 kPa | 963.4 ± 1.2 kg/m3
343.15 K, 33604 kPa | 963.4 ± 1.2 kg/m3
343.15 K, 33645 kPa | 963.5 ± 1.2 kg/m3
343.15 K, 33679 kPa | 963.4 ± 1.2 kg/m3
343.15 K, 33714 kPa | 963.4 ± 1.2 kg/m3
343.15 K, 33721 kPa | 963.6 ± 1.2 kg/m3
343.15 K, 33756 kPa | 963.6 ± 1.2 kg/m3
343.15 K, 33772 kPa | 963.8 ± 1.2 kg/m3
343.15 K, 33791 kPa | 963.6 ± 1.2 kg/m3
343.15 K, 33816 kPa | 963.7 ± 1.2 kg/m3
343.15 K, 33833 kPa | 963.5 ± 1.2 kg/m3
343.15 K, 33862 kPa | 963.6 ± 1.2 kg/m3
343.15 K, 33869 kPa | 963.6 ± 1.2 kg/m3
343.15 K, 33906 kPa | 963.5 ± 1.2 kg/m3
343.15 K, 33942 kPa | 963.6 ± 1.2 kg/m3
343.15 K, 33949 kPa | 963.7 ± 1.2 kg/m3
343.15 K, 33986 kPa | 963.7 ± 1.2 kg/m3
343.15 K, 34002 kPa | 963.7 ± 1.2 kg/m3
343.15 K, 34024 kPa | 963.7 ± 1.2 kg/m3
343.15 K, 34048 kPa | 963.7 ± 1.2 kg/m3
343.15 K, 34062 kPa | 963.7 ± 1.2 kg/m3
343.15 K, 34095 kPa | 963.8 ± 1.2 kg/m3
343.15 K, 34108 kPa | 963.8 ± 1.2 kg/m3
343.15 K, 34139 kPa | 963.8 ± 1.2 kg/m3
343.15 K, 34152 kPa | 963.8 ± 1.2 kg/m3
343.15 K, 34166 kPa | 963.8 ± 1.2 kg/m3
343.15 K, 34187 kPa | 963.8 ± 1.2 kg/m3
343.15 K, 34202 kPa | 963.9 ± 1.2 kg/m3
343.15 K, 34208 kPa | 964 ± 1.2 kg/m3
343.15 K, 34229 kPa | 963.8 ± 1.2 kg/m3
343.15 K, 34254 kPa | 963.7 ± 1.2 kg/m3
343.15 K, 34259 kPa | 963.9 ± 1.2 kg/m3
343.15 K, 34276 kPa | 963.7 ± 1.2 kg/m3
343.15 K, 34290 kPa | 964 ± 1.2 kg/m3
343.15 K, 34314 kPa | 964 ± 1.2 kg/m3
343.15 K, 34315 kPa | 963.9 ± 1.2 kg/m3
343.15 K, 34342 kPa | 964 ± 1.2 kg/m3
343.15 K, 34365 kPa | 963.9 ± 1.2 kg/m3 and 964.1 ± 1.2 kg/m3
343.15 K, 34390 kPa | 964 ± 1.2 kg/m3
343.15 K, 34409 kPa | 963.8 ± 1.2 kg/m3
343.15 K, 34414 kPa | 964.1 ± 1.2 kg/m3
343.15 K, 34444 kPa | 964 ± 1.2 kg/m3
343.15 K, 34469 kPa | 963.9 ± 1.2 kg/m3
343.15 K, 34483 kPa | 964 ± 1.2 kg/m3
343.15 K, 34500 kPa | 964 ± 1.2 kg/m3
343.15 K, 34527 kPa | 964.1 ± 1.2 kg/m3
343.15 K, 34534 kPa | 964.1 ± 1.2 kg/m3
343.15 K, 34556 kPa | 964 ± 1.2 kg/m3
343.15 K, 34566 kPa | 964.1 ± 1.2 kg/m3
343.15 K, 34584 kPa | 964.1 ± 1.2 kg/m3
343.15 K, 34616 kPa | 964.2 ± 1.2 kg/m3
343.15 K, 34624 kPa | 964.2 ± 1.2 kg/m3
343.15 K, 34625 kPa | 964.2 ± 1.2 kg/m3
343.15 K, 34651 kPa | 964.1 ± 1.2 kg/m3
343.15 K, 34654 kPa | 964.2 ± 1.2 kg/m3
343.15 K, 34656 kPa | 964.2 ± 1.2 kg/m3
343.15 K, 34659 kPa | 964.1 ± 1.2 kg/m3
343.16 K, 100.2 kPa | 940.6 ± 1.1 kg/m3
343.16 K, 100.5 kPa | 940.7 ± 1.1 kg/m3 and 940.6 ± 1.1 kg/m3
343.16 K, 100.7 kPa | 940.6 ± 1.1 kg/m3 and 940.7 ± 1.1 kg/m3
343.16 K, 101 kPa | 940.7 ± 1.1 kg/m3
343.16 K, 101.7 kPa | 940.6 ± 1.1 kg/m3
343.16 K, 103.8 kPa | 940.6 ± 1.1 kg/m3
343.16 K, 104.7 kPa | 940.6 ± 1.1 kg/m3
343.16 K, 160.8 kPa | 940.8 ± 1.1 kg/m3
343.16 K, 221.5 kPa | 940.6 ± 1.1 kg/m3
343.16 K, 300.9 kPa | 940.7 ± 1.1 kg/m3
343.16 K, 1395.6 kPa | 941.7 ± 1.1 kg/m3
343.16 K, 1419.9 kPa | 941.7 ± 1.1 kg/m3
343.16 K, 4555 kPa | 944.1 ± 1.2 kg/m3
343.16 K, 5039.3 kPa | 944.4 ± 1.2 kg/m3
343.16 K, 13687 kPa | 950.5 ± 1.2 kg/m3
